Tests used:
Format in all cases: biochemical
[1] = molecular target: T1, Rasamsonia emersonii beta-glucosidase, wild-type, SEQ ID NO: 2 (Rasamsonia emersonii, UniProt Q8TGI8); assay: Glucose inhibition of initial rate of cellobiose hydrolysis, 100 ml scale (HPLC), wild type; conditions: 20 g/l glucose, 30 mM cellobiose, pH 4.5, 62° C., 4.5 μg/ml enzyme; read-out: Ratio (V0 in presence of glucose/V0 in absence of glucose)
T1 sequence (Q8TGI8 20-857): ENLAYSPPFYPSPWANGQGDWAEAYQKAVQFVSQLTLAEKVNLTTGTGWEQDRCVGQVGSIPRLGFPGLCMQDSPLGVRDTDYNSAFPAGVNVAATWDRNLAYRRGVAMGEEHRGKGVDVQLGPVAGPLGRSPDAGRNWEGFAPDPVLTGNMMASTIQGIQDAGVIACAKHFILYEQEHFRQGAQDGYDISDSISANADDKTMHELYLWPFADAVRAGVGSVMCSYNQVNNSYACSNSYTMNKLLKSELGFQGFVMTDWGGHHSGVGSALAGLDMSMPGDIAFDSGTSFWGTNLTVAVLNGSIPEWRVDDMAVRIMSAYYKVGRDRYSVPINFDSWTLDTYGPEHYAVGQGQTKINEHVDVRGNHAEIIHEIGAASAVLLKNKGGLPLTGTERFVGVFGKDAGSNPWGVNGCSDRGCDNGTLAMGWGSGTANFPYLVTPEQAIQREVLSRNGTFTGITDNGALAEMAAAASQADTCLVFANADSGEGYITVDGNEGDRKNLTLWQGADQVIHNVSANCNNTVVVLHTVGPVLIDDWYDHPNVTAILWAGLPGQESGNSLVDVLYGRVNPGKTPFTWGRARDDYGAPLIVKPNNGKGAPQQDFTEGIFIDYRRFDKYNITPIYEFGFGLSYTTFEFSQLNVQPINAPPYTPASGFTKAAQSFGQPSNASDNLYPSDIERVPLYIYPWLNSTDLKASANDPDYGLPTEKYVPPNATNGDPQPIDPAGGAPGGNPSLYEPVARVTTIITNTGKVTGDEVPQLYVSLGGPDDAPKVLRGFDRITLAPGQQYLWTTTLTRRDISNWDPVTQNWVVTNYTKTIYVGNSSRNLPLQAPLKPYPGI
Method: The hits selected from the MTP scale assay were subsequently further characterized by monitoring cellobiose conversion at multiple time points at a larger scale. The beta-glucosidase having the amino acid sequence of SEQ ID NO: 2 was used as reference (parent/wild-type beta-glucosidase). The assay was done as follows: the variant polypeptides and the reference beta-glucosidase were incubated at a concentration of 4.5 μg/ml in a 100 mM NaAc-buffer pH 4.5 with 30 mM cellobiose in a final volume of 100 ml for 2 hours at 62° C. under continuous stirring. […] The glucose and cellobiose content of the samples was determined using a High-Performance Liquid Chromatography System (Agilent 1100) equipped with a refection index detector (Agilent 1260 Infinity). […] The glucose and cellobiose were identified and quantified according to the retention time, which was compared to the external glucose and cellobiose standards ranging from 0.2; 0.4; 1.0; 2.0 g/l.
The concentration cellobiose was plotted against time and the linear part of this curve (the linear part of the cellobiose hydrolysis) was used to calculate the V0 (the initial rate of cellobiose hydrolysis) in the presence and absence of 20 g/l glucose. The ratio of these two calculated rates (V0 in presence of glucose/V0 in absence of glucose) was calculated for the wild-type beta-glucosidase and the variant polypeptides and is listed in Table 2. […]

[2] = molecular target: T1, Rasamsonia emersonii beta-glucosidase, wild-type, SEQ ID NO: 2; assay: Kinetics of cellobiose hydrolysis with and without 20 g/l glucose (NMR, MTP scale, model fit), wild type; conditions: 10 g/l cellobiose, pH 4.5, 65° C., 20 min; Km set to 0.1 g/L
Method: (§1) For the follow-up experiment, five dilutions were made: 2-fold, 4-fold, 8-fold, 16-fold and 32-fold. The beta-glucosidase activity of the variant polypeptides and the wild-type beta-glucosidase was further analyzed in a MTP scale activity assay using cellobiose as substrate and monitoring cellobiose hydrolysis via glucose formation with NMR of the undiluted sample and the five dilutions. The same assay was performed for all dilutions in presence of 20 g/l glucose to determine the glucose tolerance. […] Subsequently, cellobiose and glucose levels in the samples were analyzed with NMR.
(§2) After enzymatic incubation, 100 μl of internal standard solution containing 20 g/I maleic acid and EDTA (40 g/L) in demineralized water, was added to each sample. […] 1D ^1H NMR spectra were recorded on a Bruker Avance III HD 500 MHz, equipped with a He cooled cryo-probe, using a pulse program without water suppression at a temperature of 29° C. with a 90 degrees excitation pulse, acquisition time of 2.7 s and relaxation delay of 30 s. The analyte concentrations (in g/L) were calculated based on the following signals (δ relative to DSS): Cellobiose: H1′ cellobiose peak at 4.50 ppm (d, 1H, J=8 Hz); Glucose: α-H1 glucose/α-H1 cellobiose peak at 5.22 ppm (d, 0.38 H, J=4 Hz). The glucose concentration was determined after correction for cellobiose. […]

[3] = molecular target: Rasamsonia emersonii beta-glucosidase variant polypeptide 1 (SEQ ID NO: 2 with substitutions M90L + M335V + M485I) (Rasamsonia emersonii, UniProt Q8TGI8, M335V/M485I/M90L); assay: Kinetics of cellobiose hydrolysis with and without 20 g/l glucose (NMR, MTP scale, model fit), variant polypeptide 1; conditions: 10 g/l cellobiose, pH 4.5, 65° C., 20 min; Km set to 0.1 g/L
Chain of Rasamsonia emersonii beta-glucosidase variant polypeptide 1 (SEQ ID NO: 2 with substitutions M90L + M335V + M485I) (Q8TGI8 entry or part of it M90L/M335V/M485I): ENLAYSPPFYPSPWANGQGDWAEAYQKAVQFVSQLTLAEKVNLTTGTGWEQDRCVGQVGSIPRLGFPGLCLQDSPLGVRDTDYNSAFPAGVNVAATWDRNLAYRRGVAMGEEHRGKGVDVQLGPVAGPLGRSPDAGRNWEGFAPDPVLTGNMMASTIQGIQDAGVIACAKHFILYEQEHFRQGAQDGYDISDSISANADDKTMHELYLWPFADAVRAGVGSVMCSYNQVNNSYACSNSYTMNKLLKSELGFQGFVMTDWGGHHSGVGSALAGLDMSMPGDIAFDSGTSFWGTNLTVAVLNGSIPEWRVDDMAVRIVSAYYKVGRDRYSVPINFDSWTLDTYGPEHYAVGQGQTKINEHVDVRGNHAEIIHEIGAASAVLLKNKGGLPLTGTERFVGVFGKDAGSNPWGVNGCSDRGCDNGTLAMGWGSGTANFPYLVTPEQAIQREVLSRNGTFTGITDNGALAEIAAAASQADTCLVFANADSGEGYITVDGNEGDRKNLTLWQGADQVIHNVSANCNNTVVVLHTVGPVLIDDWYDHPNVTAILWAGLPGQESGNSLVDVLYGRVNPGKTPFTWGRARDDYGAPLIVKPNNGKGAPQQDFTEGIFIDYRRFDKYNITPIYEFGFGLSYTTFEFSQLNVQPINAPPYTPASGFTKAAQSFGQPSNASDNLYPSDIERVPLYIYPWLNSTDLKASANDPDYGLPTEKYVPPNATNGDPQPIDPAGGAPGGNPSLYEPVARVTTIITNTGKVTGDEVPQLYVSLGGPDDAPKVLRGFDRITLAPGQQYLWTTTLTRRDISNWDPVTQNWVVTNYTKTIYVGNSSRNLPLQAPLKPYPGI
Method: as §1, §2

[4] = molecular target: Rasamsonia emersonii beta-glucosidase variant polypeptide 2 (SEQ ID NO: 2 with substitution N103A) (Rasamsonia emersonii, UniProt Q8TGI8, N103A); assay: Kinetics of cellobiose hydrolysis with and without 20 g/l glucose (NMR, MTP scale, model fit), variant polypeptide 2; conditions: 10 g/l cellobiose, pH 4.5, 65° C., 20 min; Km set to 0.1 g/L
Chain of Rasamsonia emersonii beta-glucosidase variant polypeptide 2 (SEQ ID NO: 2 with substitution N103A) (Q8TGI8 entry or part of it N103A): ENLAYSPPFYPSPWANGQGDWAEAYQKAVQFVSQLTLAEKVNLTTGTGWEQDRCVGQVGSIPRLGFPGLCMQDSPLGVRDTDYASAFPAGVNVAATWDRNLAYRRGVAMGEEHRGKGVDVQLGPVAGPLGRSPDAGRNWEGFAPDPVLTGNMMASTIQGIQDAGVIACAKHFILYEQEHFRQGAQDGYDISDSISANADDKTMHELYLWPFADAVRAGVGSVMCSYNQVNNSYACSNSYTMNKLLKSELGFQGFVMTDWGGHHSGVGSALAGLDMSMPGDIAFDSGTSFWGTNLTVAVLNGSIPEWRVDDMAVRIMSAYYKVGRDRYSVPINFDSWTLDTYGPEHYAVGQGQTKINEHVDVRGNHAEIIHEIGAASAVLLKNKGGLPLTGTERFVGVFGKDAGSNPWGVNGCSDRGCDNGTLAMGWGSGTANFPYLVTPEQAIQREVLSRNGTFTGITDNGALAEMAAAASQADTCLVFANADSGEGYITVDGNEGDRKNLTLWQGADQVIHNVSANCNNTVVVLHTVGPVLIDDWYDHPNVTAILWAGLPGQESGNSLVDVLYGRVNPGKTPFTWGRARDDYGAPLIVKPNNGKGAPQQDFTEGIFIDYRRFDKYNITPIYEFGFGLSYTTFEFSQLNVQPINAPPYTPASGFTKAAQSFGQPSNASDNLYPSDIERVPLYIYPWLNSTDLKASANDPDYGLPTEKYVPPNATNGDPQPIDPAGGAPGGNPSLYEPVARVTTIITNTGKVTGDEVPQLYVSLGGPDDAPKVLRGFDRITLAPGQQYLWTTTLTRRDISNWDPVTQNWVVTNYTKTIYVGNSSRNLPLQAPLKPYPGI
Method: as §1, §2

[5] = molecular target: Rasamsonia emersonii beta-glucosidase variant polypeptide 3 (SEQ ID NO: 2 with substitution G142S) (Rasamsonia emersonii, UniProt Q8TGI8, G142S); assay: Kinetics of cellobiose hydrolysis with and without 20 g/l glucose (NMR, MTP scale, model fit), variant polypeptide 3; conditions: 10 g/l cellobiose, pH 4.5, 65° C., 20 min; Km set to 0.1 g/L
Chain of Rasamsonia emersonii beta-glucosidase variant polypeptide 3 (SEQ ID NO: 2 with substitution G142S) (Q8TGI8 entry or part of it G142S): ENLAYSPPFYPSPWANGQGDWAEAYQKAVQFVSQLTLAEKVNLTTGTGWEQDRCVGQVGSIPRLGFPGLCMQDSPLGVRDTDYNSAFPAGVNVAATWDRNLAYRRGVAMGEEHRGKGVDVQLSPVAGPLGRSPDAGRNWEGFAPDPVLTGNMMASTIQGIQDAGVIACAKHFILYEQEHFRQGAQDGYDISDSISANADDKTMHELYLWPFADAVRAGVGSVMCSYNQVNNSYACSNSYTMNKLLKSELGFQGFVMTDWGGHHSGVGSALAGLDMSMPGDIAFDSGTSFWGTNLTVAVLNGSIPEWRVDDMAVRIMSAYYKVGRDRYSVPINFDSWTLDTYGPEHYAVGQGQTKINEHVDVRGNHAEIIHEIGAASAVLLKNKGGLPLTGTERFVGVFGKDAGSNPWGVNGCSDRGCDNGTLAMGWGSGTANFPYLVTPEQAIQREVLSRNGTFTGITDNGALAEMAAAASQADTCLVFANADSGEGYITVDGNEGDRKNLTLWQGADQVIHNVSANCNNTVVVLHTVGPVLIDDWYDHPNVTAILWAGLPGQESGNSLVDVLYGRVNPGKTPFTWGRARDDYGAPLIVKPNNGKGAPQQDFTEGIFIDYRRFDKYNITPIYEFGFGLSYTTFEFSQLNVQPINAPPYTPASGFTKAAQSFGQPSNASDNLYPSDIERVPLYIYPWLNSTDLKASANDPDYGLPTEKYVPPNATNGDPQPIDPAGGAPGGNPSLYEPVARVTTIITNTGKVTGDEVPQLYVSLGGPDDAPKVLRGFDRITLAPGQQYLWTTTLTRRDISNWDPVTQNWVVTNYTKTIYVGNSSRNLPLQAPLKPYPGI
Method: as §1, §2

[6] = molecular target: Rasamsonia emersonii beta-glucosidase variant polypeptide 4 (SEQ ID NO: 2 with substitution L606A) (Rasamsonia emersonii, UniProt Q8TGI8, L606A); assay: Kinetics of cellobiose hydrolysis with and without 20 g/l glucose (NMR, MTP scale, model fit), variant polypeptide 4; conditions: 10 g/l cellobiose, pH 4.5, 65° C., 20 min; Km set to 0.1 g/L
Chain of Rasamsonia emersonii beta-glucosidase variant polypeptide 4 (SEQ ID NO: 2 with substitution L606A) (Q8TGI8 entry or part of it L606A): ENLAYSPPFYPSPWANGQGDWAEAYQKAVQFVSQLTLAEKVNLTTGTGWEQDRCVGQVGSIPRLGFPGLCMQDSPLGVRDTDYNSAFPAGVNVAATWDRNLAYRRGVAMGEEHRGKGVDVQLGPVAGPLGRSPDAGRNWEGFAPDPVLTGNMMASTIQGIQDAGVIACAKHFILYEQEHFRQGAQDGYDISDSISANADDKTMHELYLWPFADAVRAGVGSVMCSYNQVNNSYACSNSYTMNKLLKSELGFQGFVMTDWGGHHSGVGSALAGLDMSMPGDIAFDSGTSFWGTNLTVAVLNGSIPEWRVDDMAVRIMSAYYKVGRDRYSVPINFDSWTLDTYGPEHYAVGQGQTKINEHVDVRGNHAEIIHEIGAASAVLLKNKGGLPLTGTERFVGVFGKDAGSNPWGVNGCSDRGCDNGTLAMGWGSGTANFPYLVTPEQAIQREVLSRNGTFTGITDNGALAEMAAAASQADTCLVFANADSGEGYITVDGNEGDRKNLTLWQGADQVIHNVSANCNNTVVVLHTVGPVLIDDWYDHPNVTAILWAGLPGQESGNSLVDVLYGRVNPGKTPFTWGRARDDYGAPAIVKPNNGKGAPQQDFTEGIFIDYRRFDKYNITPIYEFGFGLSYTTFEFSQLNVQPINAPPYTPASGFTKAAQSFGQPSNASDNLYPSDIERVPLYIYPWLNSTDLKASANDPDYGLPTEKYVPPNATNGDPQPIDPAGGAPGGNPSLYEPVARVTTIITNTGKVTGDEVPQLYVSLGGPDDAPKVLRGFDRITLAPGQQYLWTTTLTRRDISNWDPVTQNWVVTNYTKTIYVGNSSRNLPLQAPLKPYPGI
Method: as §1, §2

SMILES	activity at 20000 µg/mL [1] [%]	kcat (cellobiose), model prediction [2] [unitless]	kcat (cellobiose), model prediction [3] [unitless]	kcat (cellobiose), model prediction [4] [unitless]	kcat (cellobiose), model prediction [5] [unitless]	kcat (cellobiose), model prediction [6] [unitless]
OC[C@H]1OC(O)[C@H](O)[C@@H](O)[C@@H]1O (stereo partly drawn) [glucose]	18					
OC[C@H]1O[C@@H](O[C@H]2[C@H](O)[C@@H](O)C(O)O[C@@H]2CO)[C@H](O)[C@@H](O)[C@@H]1O (stereo partly drawn) [cellobiose]		1.0	0.9	1.1	0.8	2.7

Reference: patent US10808235B2, “Beta-glucosidase and uses thereof” (priority 2015, dated 2020)
